In data set [1] the test system is Rho-associated protein kinase 2 (Homo sapiens), O75116 [E140A]. The experiment in a line: Binding affinity to N-terminal His10-StrepII tagged human ROCK2 E140A mutant catalytic domain (1 to 553 residues) expressed in Sf9 insect cells assessed as change in melting temperature at 50 uM by SYPRO orange dye based thermal shift assay.
The subject of data set [2] is Rho-associated protein kinase 2 (Homo sapiens), O75116 [D232A]. Kind of data set: Binding affinity to N-terminal His10-StrepII tagged human ROCK2 D232A mutant catalytic domain (1 to 553 residues) expressed in Sf9 insect cells assessed as change in melting temperature at 50 uM by SYPRO orange dye based thermal shift assay.
A short description of data set [3]: Selectivity index, ratio of IC50 for ROCK2 (unknown origin) to IC50 for N-terminal His10-StrepII tagged human ROCK2 catalytic domain (1 to 553 residues) expressed in Sf9 insect cells.
In data set [4] the target is Maternal embryonic leucine zipper kinase (Homo sapiens) (UniProt Q14680). Kind of data set: Inhibition of human recombinant MELK at 125 nM.
Data set [5] relates to MDA-MB-231. Kind of data set: Downregulation of phosphorylated STAT3 protein expression in human MDA-MB-231 cells at 0.5 uM incubated for 24 hrs by Western blot analysis. The data set is classed as functional, cell-based. (In general: In western blotting, separated proteins are transferred to a membrane and probed.)
Data set [6] relates to MDA-MB-231. Kind of data set: Antimetastatic activity in human MDA-MB-231 cells assessed as effect on cell shapes at 5 uM incubated for 24 hrs by SEM analysis. It is filed as functional, cell-based.
The subject of data set [7] is MDA-MB-231. The experiment in a line: Upregulation of phosphorylated STAT6 protein expression in human MDA-MB-231 cells at 0.5 uM incubated for 24 hrs by Western blot analysis. The data set is classed as functional, cell-based.
In data set [8] the target is Rho-associated protein kinase 2 (Homo sapiens, UniProt O75116). The experiment in a line: Binding affinity to wild type N-terminal His10-StrepII tagged human ROCK2 catalytic domain (1 to 553 residues) expressed in Sf9 insect cells assessed as change in melting temperature at 50 uM by SYPRO orange dye based thermal shift assay.
Data set [9] relates to MDA-MB-231. Kind of data set: Inhibition of cell migration in human MDA-MB-231 cells incubated for 48 hrs by scratch wound healing assay. The data set is classed as functional, cell-based. The settings on record: dose 1.25-10 µM.
Data set [10] in a line: Clearance in ICR mouse at 15 mg/kg, iv administered as single dose and measured for 8 hrs by LC-MS/MS analysis. It is filed as ADME, organism-based. The settings on record: in vivo.
Data set [11] in a line: Half life in ICR mouse at 15 mg/kg, iv administered as single dose and measured for 8 hrs by LC-MS/MS analysis. The data set is classed as ADME, organism-based. The following applies: in vivo.
A short description of data set [12]: Drug uptake in lung of ICR mouse at 15 mg/kg, iv administered as single dose and measured after 0.25 to 4 hrs by LC-MS/MS analysis. The data set is classed as ADME, organism-based. The following applies: in vivo, time 0.25-4 hrs.
The target in data set [13] is Misshapen-like kinase 1 (Homo sapiens) (UniProt Q8N4C8). Kind of data set: Inhibition of human recombinant MINK1 at 125 nM.
For data set [14], the system named is MDA-MB-231. The experiment in a line: Upregulation of phosphorylated STAT5A protein expression in human MDA-MB-231 cells at 0.5 uM incubated for 24 hrs by Western blot analysis. The data set is classed as functional, cell-based.
The nature of data set [15]: Toxicity in BALB/c nude mouse xenografted with human MDA-MB-231 cells harboring Luc-mcherry assessed as reduction in body weight at 15 mg/kg, iv administered once a day for 45 days. The settings on record: in vivo, 1080 h, time 45 day. The data set is classed as organism-based. For orientation: In xenograft studies the graft and the host belong to different species.

Data set [16] in a line: MRT (0 to infinity) in ICR mouse at 15 mg/kg, iv administered as single dose and measured for 8 hrs by LC-MS/MS analysis. The settings on record: in vivo. It is filed as ADME, organism-based.
The target of data set [17] is Serine/threonine-protein kinase PLK1 (Homo sapiens, UniProt P53350). The experiment in a line: Inhibition of PLK1 (unknown origin).
The subject of data set [18] is MDA-MB-231. Kind of data set: Inhibition of IL-6 stimulated cell invasion in human MDA-MB-231 cells at 5 uM incubated for 24 hrs by crystal violet staining based transwell assay. It is filed as functional.

The source made the active and inactive calls. No cut-off for these calls is given here.

Chain of Maternal embryonic leucine zipper kinase (Homo sapiens) (Q14680 whole entry, looked up): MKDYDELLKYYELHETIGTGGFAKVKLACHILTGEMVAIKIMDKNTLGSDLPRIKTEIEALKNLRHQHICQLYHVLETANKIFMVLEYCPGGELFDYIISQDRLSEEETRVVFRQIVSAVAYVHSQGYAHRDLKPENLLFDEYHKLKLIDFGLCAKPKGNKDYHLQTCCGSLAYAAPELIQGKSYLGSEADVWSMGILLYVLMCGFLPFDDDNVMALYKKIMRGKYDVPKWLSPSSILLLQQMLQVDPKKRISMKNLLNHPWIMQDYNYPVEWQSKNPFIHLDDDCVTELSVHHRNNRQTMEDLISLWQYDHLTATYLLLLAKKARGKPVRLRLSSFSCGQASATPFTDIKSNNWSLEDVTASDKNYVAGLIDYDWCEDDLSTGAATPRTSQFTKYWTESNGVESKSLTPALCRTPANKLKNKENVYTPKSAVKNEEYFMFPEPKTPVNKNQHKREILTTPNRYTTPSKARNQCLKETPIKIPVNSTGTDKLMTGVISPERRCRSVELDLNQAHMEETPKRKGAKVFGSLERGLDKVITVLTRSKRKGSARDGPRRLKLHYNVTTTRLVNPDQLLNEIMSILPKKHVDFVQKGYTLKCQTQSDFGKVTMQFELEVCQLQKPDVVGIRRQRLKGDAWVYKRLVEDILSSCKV
Chain of Rho-associated protein kinase 2 (O75116 whole entry, looked up, the tested form may be a part): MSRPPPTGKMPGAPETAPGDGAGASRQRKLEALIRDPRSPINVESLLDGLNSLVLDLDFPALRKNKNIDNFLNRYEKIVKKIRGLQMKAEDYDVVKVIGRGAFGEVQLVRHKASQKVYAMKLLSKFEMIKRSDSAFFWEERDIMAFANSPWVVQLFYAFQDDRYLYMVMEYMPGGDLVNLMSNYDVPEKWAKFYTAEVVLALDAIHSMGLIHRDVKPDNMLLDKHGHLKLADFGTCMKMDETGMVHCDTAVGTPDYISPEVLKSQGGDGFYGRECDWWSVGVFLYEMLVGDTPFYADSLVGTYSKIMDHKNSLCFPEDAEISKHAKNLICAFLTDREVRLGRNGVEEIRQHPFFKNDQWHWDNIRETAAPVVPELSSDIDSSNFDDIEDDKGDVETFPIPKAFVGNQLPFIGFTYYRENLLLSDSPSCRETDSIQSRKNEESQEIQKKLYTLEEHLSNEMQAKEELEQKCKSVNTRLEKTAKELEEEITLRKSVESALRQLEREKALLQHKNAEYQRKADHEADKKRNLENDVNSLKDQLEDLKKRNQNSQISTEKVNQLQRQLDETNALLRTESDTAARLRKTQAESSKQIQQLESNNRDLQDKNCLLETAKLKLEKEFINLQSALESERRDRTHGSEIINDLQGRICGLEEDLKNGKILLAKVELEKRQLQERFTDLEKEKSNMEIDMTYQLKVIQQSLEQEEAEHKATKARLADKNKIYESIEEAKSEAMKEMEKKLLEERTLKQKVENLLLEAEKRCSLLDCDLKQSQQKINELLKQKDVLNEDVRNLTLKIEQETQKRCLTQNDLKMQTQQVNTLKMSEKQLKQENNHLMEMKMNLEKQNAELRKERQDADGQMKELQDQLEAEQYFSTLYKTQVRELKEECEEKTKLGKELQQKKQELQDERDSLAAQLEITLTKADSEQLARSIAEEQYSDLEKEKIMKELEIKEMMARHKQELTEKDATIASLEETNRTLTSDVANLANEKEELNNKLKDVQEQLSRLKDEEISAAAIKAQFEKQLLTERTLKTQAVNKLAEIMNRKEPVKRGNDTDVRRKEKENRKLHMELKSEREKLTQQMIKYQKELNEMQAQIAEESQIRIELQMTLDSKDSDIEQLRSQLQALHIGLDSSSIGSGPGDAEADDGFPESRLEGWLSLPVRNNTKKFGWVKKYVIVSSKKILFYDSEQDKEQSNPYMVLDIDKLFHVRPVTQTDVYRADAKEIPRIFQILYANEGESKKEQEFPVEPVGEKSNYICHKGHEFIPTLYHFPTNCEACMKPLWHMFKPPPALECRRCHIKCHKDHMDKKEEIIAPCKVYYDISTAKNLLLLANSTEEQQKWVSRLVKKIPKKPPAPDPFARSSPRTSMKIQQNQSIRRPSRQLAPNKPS
Chain of Rho-associated protein kinase 2 (Homo sapiens), O75116 [E140A] (O75116 whole entry E140A, the tested form may be a part): as the sequence (O75116 whole entry, looked up, the tested form may be a part) above, with E140A counted along it
Chain of Serine/threonine-protein kinase PLK1 (P53350 whole entry): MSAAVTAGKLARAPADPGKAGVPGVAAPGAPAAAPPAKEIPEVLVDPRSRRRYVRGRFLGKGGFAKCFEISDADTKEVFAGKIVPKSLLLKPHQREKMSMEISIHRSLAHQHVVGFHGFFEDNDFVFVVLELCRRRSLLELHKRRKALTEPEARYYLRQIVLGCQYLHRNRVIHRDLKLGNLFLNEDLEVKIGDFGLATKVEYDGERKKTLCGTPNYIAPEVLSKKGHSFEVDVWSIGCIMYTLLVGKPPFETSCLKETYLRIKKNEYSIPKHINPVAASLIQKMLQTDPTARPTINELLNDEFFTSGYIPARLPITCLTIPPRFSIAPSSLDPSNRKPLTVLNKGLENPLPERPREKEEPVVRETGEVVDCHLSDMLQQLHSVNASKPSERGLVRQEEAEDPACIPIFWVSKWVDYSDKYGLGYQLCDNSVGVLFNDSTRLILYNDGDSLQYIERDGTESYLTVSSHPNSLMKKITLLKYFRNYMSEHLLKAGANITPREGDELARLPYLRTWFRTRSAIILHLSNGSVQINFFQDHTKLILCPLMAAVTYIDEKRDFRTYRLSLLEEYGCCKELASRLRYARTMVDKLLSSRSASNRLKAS
Chain of Misshapen-like kinase 1 (Homo sapiens) (Q8N4C8 whole entry, looked up): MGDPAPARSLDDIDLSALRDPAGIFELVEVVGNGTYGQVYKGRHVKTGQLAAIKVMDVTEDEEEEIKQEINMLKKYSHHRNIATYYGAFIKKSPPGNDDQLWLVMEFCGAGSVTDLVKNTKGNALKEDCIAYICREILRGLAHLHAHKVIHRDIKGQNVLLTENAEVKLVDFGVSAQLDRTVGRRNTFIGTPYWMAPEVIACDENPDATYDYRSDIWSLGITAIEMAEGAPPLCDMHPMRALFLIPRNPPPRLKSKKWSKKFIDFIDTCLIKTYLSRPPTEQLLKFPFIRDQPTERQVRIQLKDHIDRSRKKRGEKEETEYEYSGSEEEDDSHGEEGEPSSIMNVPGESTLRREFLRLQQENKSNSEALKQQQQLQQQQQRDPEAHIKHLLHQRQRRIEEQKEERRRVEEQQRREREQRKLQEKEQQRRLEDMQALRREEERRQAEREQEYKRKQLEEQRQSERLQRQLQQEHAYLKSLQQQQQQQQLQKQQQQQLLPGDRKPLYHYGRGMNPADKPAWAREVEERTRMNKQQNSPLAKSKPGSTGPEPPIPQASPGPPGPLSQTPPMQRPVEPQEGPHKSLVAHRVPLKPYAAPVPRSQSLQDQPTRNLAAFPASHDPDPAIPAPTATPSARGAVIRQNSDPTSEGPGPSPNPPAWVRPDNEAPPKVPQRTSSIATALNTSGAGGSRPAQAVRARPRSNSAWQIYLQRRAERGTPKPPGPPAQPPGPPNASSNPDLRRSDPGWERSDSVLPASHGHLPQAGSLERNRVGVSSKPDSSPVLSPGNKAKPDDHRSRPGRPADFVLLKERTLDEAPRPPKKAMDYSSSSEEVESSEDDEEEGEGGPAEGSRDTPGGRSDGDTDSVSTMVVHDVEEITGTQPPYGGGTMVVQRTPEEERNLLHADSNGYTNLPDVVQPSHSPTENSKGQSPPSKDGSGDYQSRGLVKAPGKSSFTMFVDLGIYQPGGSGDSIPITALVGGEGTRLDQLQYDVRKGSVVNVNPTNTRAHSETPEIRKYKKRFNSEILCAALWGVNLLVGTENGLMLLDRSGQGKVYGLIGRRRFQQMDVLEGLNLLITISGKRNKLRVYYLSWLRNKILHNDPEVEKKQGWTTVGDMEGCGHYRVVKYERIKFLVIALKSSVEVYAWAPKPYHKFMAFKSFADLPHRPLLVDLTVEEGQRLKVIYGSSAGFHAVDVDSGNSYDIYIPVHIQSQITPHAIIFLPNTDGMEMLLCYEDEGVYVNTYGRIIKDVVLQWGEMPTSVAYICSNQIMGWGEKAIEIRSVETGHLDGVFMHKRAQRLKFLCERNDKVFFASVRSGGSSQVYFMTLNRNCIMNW
Chain of Rho-associated protein kinase 2 (Homo sapiens), O75116 [D232A] (O75116 whole entry D232A, the tested form may be a part): as the sequence (O75116 whole entry, looked up, the tested form may be a part) above, with D232A counted along it

One may read the clearance as the volume of plasma or blood freed of the substance per unit of time. Lower therefore signals inefficient removal. The half-life is the time in which the quantity being followed falls by half. Low readings indicate rapid decline, high ones slow decline. The MRT inf is a mean duration of stay, worked out from the concentration-time curve. Usually IC50 stands for the concentration that gives 50% inhibition. A low value points to greater potency. As for `O=C1NCc2c1c1c3cc(O)ccc3[nH]c1c1[nH]c3ccccc3c21`, the outcome in [1] and in data set [2] was inactive. For the same compound, the Ratio IC50 in data set [3] is greater than 100. The inhibition result (in [4]; in data set [13]; with MDA-MB-231 [18]) was “Active” each time. For the same compound, the outcome (in the data set on MDA-MB-231 [5]; in the data set with MDA-MB-231 [6]; with MDA-MB-231 [7]; in data set [8]; in the data set with MDA-MB-231 [14]) was Active. In addition, the inhibition entry in the data set with MDA-MB-231 [9] was “Dose-Dependent Effect”. Also, the clearance in data set [10] was found to be 29.3 mL/min/kg. The compound also had a half-life in data set [11] of 90.6 min. Also, the Drug uptake result in data set [12] is on record as “Active”. Moreover, in data set [15], the Activity result is “Non-Toxic”. In data set [16], the MRT inf was found to be 10.8 min. Further, in data set [17], the concentration for half-maximal inhibition (IC50) is greater than 10 µM.

Values taken from ChEMBL document CHEMBL5385876, “Discovery of unglycosylated indolocarbazoles as ROCK2 isoform-selective inhibitors for the treatment of breast cancer metastasis” (Eur J Med Chem, 2023).
